Test results published in paper PMC4764579, “Structural insights into the mechanism of activation of the TRPV1 channel by a membrane-bound tarantula toxin” (eLife, 2016).
Positions of bridges follow the written chain, without caps; N, C: chain ends. Residues, ends and D or L forms follow the SMILES beside them.

Experiment: Membrane partitioning of toxins into lipid vesicles measured using Trp fluorescence
Format: physicochemical
Settings: Trp fluorescence, excitation 280 nm, F/F0 at 320 nm; LUVs 1:1 POPC:POPG extruded through 100 nm; toxin 2 or 5 µM in 10 mM HEPES, 1 mM EDTA, pH 7.0; available lipid 60% of total; fit of partition function; ± SEM, n = 3 or 4; SEM
Text: Motivated by the amphipathic character evident in the structure of DkTx, together with the placement of the toxin at the protein-lipid interface when bound to TRPV1, we investigated the interaction of DkTx and each of its two lobes with lipid membranes. For these experiments, we took advantage of the presence of a single conserved and solvent accessible Trp residue in loop 2 of both K1 and K2 (Figure 1C,D; W11 and W53), and used Trp fluorescence to monitor the partitioning of the toxin from the aqueous solution into the membrane environment ([Gupta et al., 2015]; [Ladokhin et al., 2000]; [Milescu et al., 2007]). When aqueous solutions of DkTx were excited at a wavelength of 280 nm, emission spectra with maxima at 353 nm were obtained (Figure 5A, left), as expected for Trp residues residing in such an environment. […] To quantify the extent of partitioning as a function of lipid concentration, we measured the relative fluorescence intensity in a blue-shifted region of the spectra (e.g. 320 nm) as a function of lipid concentration, and fit a partition function to the data to obtain a mole-fraction partition coefficient (Kx) of (2.3 ± 0.7) × 10^6, indicating an energetically favorable interaction of DkTx with lipid membranes (Figure 5A, right). This strong interaction of DkTx with membranes would facilitate binding of the toxin to the channel by increasing the local concentration of the toxin near the channel and by a reduction in the dimensionality of diffusion within the membrane ([Axelrod and Wang, 1994]).
Figure 5. Interaction of DkTx and toxin constructs with lipid membranes measured using Trp fluorescence. (A–E, left panel) Trp emission spectra of DkTx (A), K1 without linker (B), K2 (C), bivalent K1 (K1K1) (D) and bivalent K2 (K2K2) (E) in the absence (black) and presence (blue, 1.6 mM for DkTx, 2 mM for K1-ΔL and K1K1, and 3 mM for K2 and K2K2) of lipid vesicles (1:1 mix of POPC:POPG). (A–E, right panel) Relative fluorescence intensity at 320 nm (F/F0) as a function of available lipid concentrations (60% of total lipid concentration). Smooth curves correspond to partition functions with Kx = (2.3 ± 0.7) × 10^6 and F/F0^max = 2.65 ± 0.08 for DkTx, Kx = (3.9 ± 1.1) × 10^5 and F/F0^max = 2.63 ± 0.07 for K1-ΔL, Kx = (2.0 ± 0.3) × 10^4 and F/F0^max = 3.71 ± 0.40 for K2, Kx = (2.9 ± 0.3) × 10^6 and F/F0^max = 2.47 ± 0.03 for K1K1 and Kx = (8.1 ± 2) × 10^5 and F/F0^max = 2.77 ± 0.55 for K2K2. Error bars correspond to SEM (n = 3 or 4). Partition functions for K1-ΔL and K2 are shown as dotted lines for comparison in D and E, respectively. (F) Comparisons of mole-fraction partition coefficient (Kx) of toxins. 7G-DkTx denotes a construct of DkTx whose linker (PYVPVTT) is replaced with 7 Gly residues. Error bars correspond to SEM (n = 3 or 4). DOI: http://dx.doi.org/10.7554/eLife.11273.020 Figure 5—figure supplement 1. Interaction of K1-K2 chimeras with lipid membranes measured using Trp fluorescence. (A–E, left panel) Trp emission spectra of K1(D1N) (A), K1(K2L2) (B), K1(K2L3) (C), K1(K2L4) (D) and K1(K2CT) (E) in the absence (black) and presence (blue, 2 mM) of lipid vesicles (1:1 mix of POPC:POPG). (A–D, right panel) Relative fluorescence intensity at 320 nm (F/F0) as a function of available lipid concentrations (60% of total lipid concentration). Smooth curves correspond to partition functions with Kx = (1.76 ± 0.06) × 10^6 and F/F0^max = 3.79 ± 0.02 for K1(D1N), Kx = (4.77 ± 1.39) × 10^5 and F/F0^max = 1.31 ± 0.02 for K1(K2L2), Kx = (1.02 ± 0.04) × 10^4 and F/F0^max = 3.69 ± 0.02 for K1(K2L3), and Kx = (0.90 ± 0.04) × 10^6 and F/F0^max = 2.59 ± 0.02 for K1(K2L4). Error bar corresponds to SEM (n = 3 or 4). Smooth curve of K1-ΔL was shown as a dotted line for comparison throughout the figures. (F) Comparisons of mole-fraction partition coefficient (Kx) of toxins. Error bars correspond to SEM (n = 3 or 4). DOI: http://dx.doi.org/10.7554/eLife.11273.021 [drawing 10] […]

Row | SMILES | mole-fraction partition coefficient (Kx)
1 | CC[C@H](C)[C@@H]1NC(=O)[C@H](Cc2ccccc2)NC(=O)[C@H](CCC(=O)O)NC(=O)[C@H](CCSC)NC(=O)[C@@H]2CCCN2C(=O)[C@@H]2CSSC[C@@H]3NC(=O)[C@H](C(C)C)NC(=O)[C@H](CCC(=O)O)NC(=O)CNC(=O)[C@H](CCC(=O)O)NC(=O)[C@H](CCCCN)NC(=O)[C@H](C)NC(=O)[C@@H](NC(=O)[C@@H](N)CC(=O)O)CSSC[C@H](NC(=O)[C@H](CSSC[C@@H](C(=O)N[C@@H](CCCCN)C(=O)N[C@@H](CCCCN)C(=O)N[C@@H](Cc4ccc(O)cc4)C(=O)N[C@@H](CCCCN)C(=O)O)NC(=O)[C@H](Cc4c[nH]cn4)NC(=O)[C@@H]4CCCN4C1=O)NC(=O)[C@H](CCCCN)NC(=O)[C@H](CO)NC(=O)CNC(=O)[C@H](Cc1c[nH]c4ccccc14)NC(=O)CNC3=O)C(=O)N[C@@H](CC(=O)O)C(=O)N[C@@H](CC(C)C)C(=O)N[C@@H](CC(=O)O)C(=O)N[C@@H](CC(N)=O)C(=O)N[C@@H](Cc1ccccc1)C(=O)N[C@@H](Cc1ccc(O)cc1)C(=O)N2 [K1(K2L2)] (H-DCAKEGEVCGWGSKCCDLDNFYCPMEFIPHCKKYK-OH; disulfide 2-16, 9-23, 15-31) | (4.77 ± 1.39) × 10^5
2 | CC[C@H](C)[C@@H]1NC(=O)[C@H](Cc2ccccc2)NC(=O)[C@H](CCC(=O)O)NC(=O)[C@H](CCSC)NC(=O)[C@@H]2CCCN2C(=O)[C@@H]2CSSC[C@@H]3NC(=O)[C@H](C(C)C)NC(=O)[C@H](CCC(=O)O)NC(=O)CNC(=O)[C@H](CCC(=O)O)NC(=O)[C@H](CCCCN)NC(=O)[C@H](C)NC(=O)[C@@H](NC(=O)[C@@H](N)CC(=O)O)CSSC[C@H](NC(=O)[C@H](CSSC[C@@H](C(=O)N[C@@H](CCCCN)C(=O)N[C@@H](CCCCN)C(=O)N[C@@H](Cc4ccc(O)cc4)C(=O)N[C@@H](CCCCN)C(=O)O)NC(=O)[C@H](Cc4c[nH]cn4)NC(=O)[C@@H]4CCCN4C1=O)NC(=O)[C@H](CCCCN)NC(=O)[C@H](CCCCN)NC(=O)CNC(=O)[C@H](Cc1c[nH]c4ccccc14)NC(=O)[C@H](CO)NC3=O)C(=O)N[C@@H](CC(=O)O)C(=O)N[C@@H](CC(C)C)C(=O)N[C@@H](CC(=O)O)C(=O)N[C@@H](CC(N)=O)C(=O)N[C@@H](Cc1ccccc1)C(=O)N[C@@H](Cc1ccc(O)cc1)C(=O)N2 [K1-ΔL] (H-DCAKEGEVCSWGKKCCDLDNFYCPMEFIPHCKKYK-OH; disulfide 2-16, 9-23, 15-31) | (3.9 ± 1.1) × 10^5
3 | CC[C@H](C)[C@@H]1NC(=O)[C@H](Cc2ccccc2)NC(=O)[C@H](CCC(=O)O)NC(=O)[C@H](CCSC)NC(=O)[C@@H]2CCCN2C(=O)[C@@H]2CSSC[C@@H]3NC(=O)[C@H](C(C)C)NC(=O)[C@H](CCC(=O)O)NC(=O)CNC(=O)[C@H](CCC(=O)O)NC(=O)[C@H](CCCCN)NC(=O)[C@H](C)NC(=O)[C@@H](NC(=O)[C@@H](N)CC(=O)O)CSSC[C@H](NC(=O)[C@H](CSSC[C@@H](C(=O)N[C@@H](CCCCN)C(=O)N[C@@H](CCCCN)C(=O)N[C@@H](Cc4ccc(O)cc4)C(=O)N[C@@H](CCCCN)C(=O)O)NC(=O)[C@H](Cc4c[nH]cn4)NC(=O)[C@@H]4CCCN4C1=O)NC(=O)[C@H](CCCCN)NC(=O)[C@H](CCCCN)NC(=O)CNC(=O)[C@H](Cc1c[nH]c4ccccc14)NC(=O)[C@H](CO)NC3=O)C(=O)N[C@@H](Cc1c[nH]cn1)C(=O)NCC(=O)N[C@@H](CC(C)C)C(=O)N[C@@H](CC(=O)O)C(=O)N2 [K1(K2L3)] (H-DCAKEGEVCSWGKKCCHGLDCPMEFIPHCKKYK-OH; disulfide 2-16, 9-21, 15-29) | (1.02 ± 0.04) × 10^4
4 | CC[C@H](C)[C@@H]1NC(=O)[C@H](Cc2ccccc2)NC(=O)[C@H](C)NC(=O)[C@H](CC(C)C)NC(=O)[C@@H]2CCCN2C(=O)[C@@H]2CSSC[C@@H]3NC(=O)[C@H](C(C)C)NC(=O)[C@H](CCC(=O)O)NC(=O)CNC(=O)[C@H](CCC(=O)O)NC(=O)[C@H](CCCCN)NC(=O)[C@H](C)NC(=O)[C@@H](NC(=O)[C@@H](N)CC(=O)O)CSSC[C@H](NC(=O)[C@H](CSSC[C@@H](C(=O)N[C@@H](CCCCN)C(=O)N[C@@H](CCCCN)C(=O)N[C@@H](Cc4ccc(O)cc4)C(=O)N[C@@H](CCCCN)C(=O)O)NC(=O)[C@H](Cc4ccc(O)cc4)NC(=O)[C@@H]4CCCN4C1=O)NC(=O)[C@H](CCCCN)NC(=O)[C@H](CCCCN)NC(=O)CNC(=O)[C@H](Cc1c[nH]c4ccccc14)NC(=O)[C@H](CO)NC3=O)C(=O)N[C@@H](CC(=O)O)C(=O)N[C@@H](CC(C)C)C(=O)N[C@@H](CC(=O)O)C(=O)N[C@@H](CC(N)=O)C(=O)N[C@@H](Cc1ccccc1)C(=O)N[C@@H](Cc1ccc(O)cc1)C(=O)N2 [K1(K2L4)] (H-DCAKEGEVCSWGKKCCDLDNFYCPLAFIPYCKKYK-OH; disulfide 2-16, 9-23, 15-31) | (0.90 ± 0.04) × 10^6
5 | CC[C@H](C)[C@@H]1NC(=O)[C@H](Cc2ccccc2)NC(=O)[C@H](CCC(=O)O)NC(=O)[C@H](CCSC)NC(=O)[C@@H]2CCCN2C(=O)[C@@H]2CSSC[C@@H]3NC(=O)[C@H](C(C)C)NC(=O)[C@H](CCC(=O)O)NC(=O)CNC(=O)[C@H](CCC(=O)O)NC(=O)[C@H](CCCCN)NC(=O)[C@H](C)NC(=O)[C@@H](NC(=O)[C@@H](N)CC(N)=O)CSSC[C@H](NC(=O)[C@H](CSSC[C@@H](C(=O)N[C@@H](CCCCN)C(=O)N[C@@H](CCCCN)C(=O)N[C@@H](Cc4ccc(O)cc4)C(=O)N[C@@H](CCCCN)C(=O)O)NC(=O)[C@H](Cc4c[nH]cn4)NC(=O)[C@@H]4CCCN4C1=O)NC(=O)[C@H](CCCCN)NC(=O)[C@H](CCCCN)NC(=O)CNC(=O)[C@H](Cc1c[nH]c4ccccc14)NC(=O)[C@H](CO)NC3=O)C(=O)N[C@@H](CC(=O)O)C(=O)N[C@@H](CC(C)C)C(=O)N[C@@H](CC(=O)O)C(=O)N[C@@H](CC(N)=O)C(=O)N[C@@H](Cc1ccccc1)C(=O)N[C@@H](Cc1ccc(O)cc1)C(=O)N2 [K1(D1N)] (H-NCAKEGEVCSWGKKCCDLDNFYCPMEFIPHCKKYK-OH; disulfide 2-16, 9-23, 15-31) | (1.76 ± 0.06) × 10^6
